Tests used:
HepG2 [1] = experiment: Antiproliferative activity against human HepG2 cells measured after 24 hrs by MTT assay; type: functional, cell-based; conditions: HepG2, 24 h
Ehrlich [2] = experiment: Antitumor activity against mouse EAC cells implanted in mouse assessed as reduction in tumor volume at 0.5 mg/kg, ip relative to control; type: functional; design: scale not given: the % may be the effect or the level left
Ehrlich [3] = experiment: Antitumor activity against mouse EAC cells implanted in mouse assessed as increase in life span at 0.5 mg/kg, ip relative to control; type: functional
Histone deacetylase 1 [4] = target: T1, Histone deacetylase 1 (Homo sapiens, UniProt Q13547); experiment: Inhibition of human HDAC1 incubated for 30 mins by ELISA; conditions: pooled result: one value given for 5 cell lines, strains, targets or settings
T1 sequence (Q13547 whole entry): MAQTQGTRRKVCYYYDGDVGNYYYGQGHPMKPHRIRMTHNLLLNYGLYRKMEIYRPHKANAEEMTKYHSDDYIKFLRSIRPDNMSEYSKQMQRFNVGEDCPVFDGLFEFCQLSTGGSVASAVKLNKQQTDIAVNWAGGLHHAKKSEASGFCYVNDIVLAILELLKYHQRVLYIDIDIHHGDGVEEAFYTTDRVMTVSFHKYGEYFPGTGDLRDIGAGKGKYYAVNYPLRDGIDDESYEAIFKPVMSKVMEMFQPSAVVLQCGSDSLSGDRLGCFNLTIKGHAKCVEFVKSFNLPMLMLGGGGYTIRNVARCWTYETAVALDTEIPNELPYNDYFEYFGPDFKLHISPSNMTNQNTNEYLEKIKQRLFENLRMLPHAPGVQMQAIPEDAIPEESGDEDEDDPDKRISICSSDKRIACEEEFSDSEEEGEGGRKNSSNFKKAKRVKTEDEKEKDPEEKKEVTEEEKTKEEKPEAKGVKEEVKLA

MCF7 [5] = experiment: Antiproliferative activity against human MCF7 cells measured after 24 hrs by MTT assay; type: functional, cell-based; conditions: MCF7, 24 h
HCT-116 [6] = experiment: Antiproliferative activity against human HCT-116 cells measured after 24 hrs by MTT assay; type: functional, cell-based; conditions: HCT-116, 24 h
HeLa = experiment: Antiproliferative activity against human HeLa cells measured after 24 hrs by MTT assay; type: functional, cell-based
HCT-116 [7] = experiment: Antiproliferative activity against human HCT-116 cells assessed as reduction in cell growth measured for 48 hrs by MTT assay; type: functional, cell-based; conditions: HCT-116, 48 h
HepG2 [8] = experiment: Antiproliferative activity against human HepG2 cells assessed as reduction in cell growth measured for 48 hrs by MTT assay; type: functional, cell-based; conditions: HepG2, 48 h
MCF7 [9] = experiment: Antiproliferative activity against human MCF7 cells assessed as reduction in cell growth measured for 48 hrs by MTT assay; type: functional, cell-based; conditions: MCF7, 48 h
A549 [10] = experiment: Antiproliferative activity against human A549 cells assessed as reduction in cell growth measured for 48 hrs by MTT assay; type: functional, cell-based; conditions: A549, 48 h
Histone deacetylase 1 [11] = target: T1, Histone deacetylase 1; experiment: Inhibition of human HDAC1 by colorimetric ELISA assay
Histone deacetylase 2 [12] = target: T2, Histone deacetylase 2 (Homo sapiens, UniProt Q92769); experiment: Inhibition of human HDAC2 by colorimetric ELISA assay
T2 sequence (Q92769 whole entry): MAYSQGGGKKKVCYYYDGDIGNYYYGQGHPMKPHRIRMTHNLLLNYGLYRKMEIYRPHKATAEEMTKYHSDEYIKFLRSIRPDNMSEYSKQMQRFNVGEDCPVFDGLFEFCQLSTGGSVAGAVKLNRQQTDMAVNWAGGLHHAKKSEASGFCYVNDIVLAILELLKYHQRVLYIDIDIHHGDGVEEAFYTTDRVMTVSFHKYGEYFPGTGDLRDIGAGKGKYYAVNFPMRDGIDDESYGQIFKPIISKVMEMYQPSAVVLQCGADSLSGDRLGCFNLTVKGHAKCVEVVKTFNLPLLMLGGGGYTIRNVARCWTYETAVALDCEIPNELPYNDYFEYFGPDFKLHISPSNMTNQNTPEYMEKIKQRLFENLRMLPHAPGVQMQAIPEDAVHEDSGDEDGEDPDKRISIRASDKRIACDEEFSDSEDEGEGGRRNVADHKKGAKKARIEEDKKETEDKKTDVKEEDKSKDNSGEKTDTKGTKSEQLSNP

CAPAN-1 [13] = experiment: Antitumor activity against human CAPAN-1 cells xenografted in mouse assessed as tumor growth inhibition at 100 mg/kg, ip relative to control; type: functional; conditions: read-out: TGI
CAPAN-1 [14] = experiment: Antitumor activity against human CAPAN-1 cells xenografted in mouse assessed as tumor growth inhibition at 50 mg/kg, ip relative to control; type: functional; conditions: read-out: TGI
CAPAN-1 [15] = experiment: Antiproliferative activity against human CAPAN-1 cells; type: functional, cell-based
Histone deacetylase 1 [16] = target: T1, Histone deacetylase 1; experiment: Inhibition of HDAC1 (unknown origin)
[17] = target: Bromodomain-containing protein 4 (Homo sapiens, UniProt O60885); experiment: Inhibition of BRD4 (unknown origin)
CAPAN-1 [18] = experiment: Potency index, ratio of vorinostat IC50 to test compound IC50 for antiproliferative activity against human CAPAN-1 cells; type: functional
[19] = target: T3, Protein deacetylase HDAC6 (Homo sapiens, UniProt Q9UBN7); experiment: Inhibition of HDAC6 (unknown origin) using ZMAL (Z-Lys(Ac)-AMC as fluorogenic substrate pre-incubated for 15 mins followed by susbtrate addition and measured for 45 mins by fluorescence based analysis
T3 sequence (Q9UBN7 whole entry): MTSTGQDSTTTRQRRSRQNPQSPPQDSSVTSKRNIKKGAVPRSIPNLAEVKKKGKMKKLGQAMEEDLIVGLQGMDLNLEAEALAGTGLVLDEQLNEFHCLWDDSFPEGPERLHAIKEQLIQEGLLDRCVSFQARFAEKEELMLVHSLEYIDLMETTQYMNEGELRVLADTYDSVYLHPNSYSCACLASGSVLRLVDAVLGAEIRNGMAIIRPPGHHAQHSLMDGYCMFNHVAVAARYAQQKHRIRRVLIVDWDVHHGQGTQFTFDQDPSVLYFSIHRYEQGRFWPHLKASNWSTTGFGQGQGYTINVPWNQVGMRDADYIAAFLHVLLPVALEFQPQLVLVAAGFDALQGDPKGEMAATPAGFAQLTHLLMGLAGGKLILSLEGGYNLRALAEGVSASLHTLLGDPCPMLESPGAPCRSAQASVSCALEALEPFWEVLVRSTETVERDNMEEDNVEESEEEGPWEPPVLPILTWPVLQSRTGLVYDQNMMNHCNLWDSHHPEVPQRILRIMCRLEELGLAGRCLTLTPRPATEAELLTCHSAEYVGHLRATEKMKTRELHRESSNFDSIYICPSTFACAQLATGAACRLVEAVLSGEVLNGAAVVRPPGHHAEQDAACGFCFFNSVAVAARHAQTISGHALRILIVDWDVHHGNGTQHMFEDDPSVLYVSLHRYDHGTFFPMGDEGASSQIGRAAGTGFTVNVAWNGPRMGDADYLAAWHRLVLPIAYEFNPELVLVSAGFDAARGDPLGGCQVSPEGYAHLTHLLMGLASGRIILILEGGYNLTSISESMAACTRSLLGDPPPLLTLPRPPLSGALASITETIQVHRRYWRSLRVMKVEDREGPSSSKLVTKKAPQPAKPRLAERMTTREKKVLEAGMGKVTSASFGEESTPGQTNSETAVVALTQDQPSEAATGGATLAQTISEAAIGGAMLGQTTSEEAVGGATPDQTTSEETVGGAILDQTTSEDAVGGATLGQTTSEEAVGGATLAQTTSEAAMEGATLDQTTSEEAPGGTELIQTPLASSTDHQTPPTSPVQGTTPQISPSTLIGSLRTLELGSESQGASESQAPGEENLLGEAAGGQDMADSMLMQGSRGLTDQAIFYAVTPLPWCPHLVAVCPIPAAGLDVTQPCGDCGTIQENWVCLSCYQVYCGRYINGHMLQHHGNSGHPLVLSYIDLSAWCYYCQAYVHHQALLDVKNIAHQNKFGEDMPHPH

HT-29 = experiment: Antiproliferative activity against human HT-29 cells assessed as reduction in cell growth by MTT assay; type: functional, cell-based
SH-SY5Y = experiment: Antiproliferative activity against human SH-SY5Y cells by MTT assay; type: functional, cell-based
CAPAN-1 [20] = experiment: Antitumor activity against human CAPAN-1 cells xenografted in mouse assessed as tumor growth inhibition at 50 mg/kg, ip in presence of vorinostat relative to control; type: functional; conditions: read-out: TGI
U-87 MG [21] = experiment: Antitumor activity against human U87 cells xenografted in mouse assessed as tumor growth inhibition at 20 mg/kg, po relative to control; type: functional, U-87MG ATCC; conditions: read-out: TGI
[22] = Metabolic stability in human liver microsomes assessed as half life incubated for 60 mins in presence of NADPH by LC-MS/MS analysis; type: ADME, Microsome
[23] = Metabolic stability in mouse liver microsomes assessed as half life incubated for 60 mins in presence of NADPH by LC-MS/MS analysis; type: ADME, Microsome
Histone deacetylase 1 [24] = target: T1, Histone deacetylase 1; experiment: Inhibition of HDAC1 (unknown origin) using 6-carboxyfluorescein peptide as substrate incubated for 18 hrs by fluorescence based assay
A549 [25] = experiment: Antiproliferative activity against human A549 cells assessed as inhibition of cell growth measured after 72 hrs by MTT assay; type: functional, cell-based; conditions: A549, 72 h, pooled result: one value given for 8 cell lines, strains, targets or settings
[26] = Metabolic stability in rat liver microsomes assessed as half life incubated for 60 mins in presence of NADPH by LC-MS/MS analysis; type: ADME, Microsome
[27] = Oral bioavailability in female […] at 10 mg/kg; type: ADME, organism-based; conditions: in vivo
[28] = target: T3, Protein deacetylase HDAC6; experiment: Inhibition of HDAC6 (unknown origin) using 6-carboxyfluorescein peptide as substrate incubated for 18 hrs by fluorescence based assay
Histone deacetylase 2 [29] = target: T2, Histone deacetylase 2; experiment: Inhibition of HDAC2 (unknown origin) using 6-carboxyfluorescein peptide as substrate incubated for 18 hrs by fluorescence based assay
U-87 MG [30] = experiment: Antiproliferative activity against human U87 cells assessed as reduction in cell growth incubated for 72 hrs by MTT assay; type: functional, cell-based, U-87MG ATCC
U-251 = experiment: Antiproliferative activity against human U-251 cells assessed as reduction in cell growth incubated for 72 hrs by MTT assay; type: functional, cell-based; conditions: U-251, 72 h
HL-60 = experiment: Antiproliferative activity against human HL-60 cells assessed as cell growth inhibition by MTT assay; type: functional, cell-based
U-937 = experiment: Antiproliferative activity against human U-937 cells assessed as cell growth inhibition by MTT assay; type: functional, cell-based
[31] = Antitumor activity against mouse WEHI-3 cells implanted in mouse assessed as reduction in tumor growth at 25 mg/kg, ip relative to control; type: functional; design: scale not given: the % may be the effect or the level left
Histone deacetylase 3 = Histone deacetylase 3 (Homo sapiens, UniProt O15379); experiment: Inhibition of HDAC3 (unknown origin)
Chain of Histone deacetylase 3 (O15379 whole entry): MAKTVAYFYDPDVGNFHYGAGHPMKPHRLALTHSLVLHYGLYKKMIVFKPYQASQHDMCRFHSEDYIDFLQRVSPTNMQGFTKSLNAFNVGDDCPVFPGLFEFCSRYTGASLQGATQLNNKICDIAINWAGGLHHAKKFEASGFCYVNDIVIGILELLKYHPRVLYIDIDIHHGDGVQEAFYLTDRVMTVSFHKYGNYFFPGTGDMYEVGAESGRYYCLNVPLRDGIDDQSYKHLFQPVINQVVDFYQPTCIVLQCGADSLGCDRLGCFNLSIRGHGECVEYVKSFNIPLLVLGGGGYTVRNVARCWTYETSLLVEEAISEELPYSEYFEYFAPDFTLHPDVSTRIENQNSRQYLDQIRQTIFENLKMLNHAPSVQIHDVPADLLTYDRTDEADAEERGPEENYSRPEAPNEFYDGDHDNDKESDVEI

[32] = target: T3, Protein deacetylase HDAC6; experiment: Inhibition of HDAC6 (unknown origin)
Histone deacetylase 2 [33] = target: T2, Histone deacetylase 2; experiment: Inhibition of HDAC2 (unknown origin)
[34] = Cytotoxicity against human PBMC cells; type: toxicity, cell-based
Histone deacetylase 4 = Histone deacetylase 4 (Homo sapiens, UniProt P56524); experiment: Inhibition of HDAC4 (unknown origin)
Chain of Histone deacetylase 4 (P56524 whole entry): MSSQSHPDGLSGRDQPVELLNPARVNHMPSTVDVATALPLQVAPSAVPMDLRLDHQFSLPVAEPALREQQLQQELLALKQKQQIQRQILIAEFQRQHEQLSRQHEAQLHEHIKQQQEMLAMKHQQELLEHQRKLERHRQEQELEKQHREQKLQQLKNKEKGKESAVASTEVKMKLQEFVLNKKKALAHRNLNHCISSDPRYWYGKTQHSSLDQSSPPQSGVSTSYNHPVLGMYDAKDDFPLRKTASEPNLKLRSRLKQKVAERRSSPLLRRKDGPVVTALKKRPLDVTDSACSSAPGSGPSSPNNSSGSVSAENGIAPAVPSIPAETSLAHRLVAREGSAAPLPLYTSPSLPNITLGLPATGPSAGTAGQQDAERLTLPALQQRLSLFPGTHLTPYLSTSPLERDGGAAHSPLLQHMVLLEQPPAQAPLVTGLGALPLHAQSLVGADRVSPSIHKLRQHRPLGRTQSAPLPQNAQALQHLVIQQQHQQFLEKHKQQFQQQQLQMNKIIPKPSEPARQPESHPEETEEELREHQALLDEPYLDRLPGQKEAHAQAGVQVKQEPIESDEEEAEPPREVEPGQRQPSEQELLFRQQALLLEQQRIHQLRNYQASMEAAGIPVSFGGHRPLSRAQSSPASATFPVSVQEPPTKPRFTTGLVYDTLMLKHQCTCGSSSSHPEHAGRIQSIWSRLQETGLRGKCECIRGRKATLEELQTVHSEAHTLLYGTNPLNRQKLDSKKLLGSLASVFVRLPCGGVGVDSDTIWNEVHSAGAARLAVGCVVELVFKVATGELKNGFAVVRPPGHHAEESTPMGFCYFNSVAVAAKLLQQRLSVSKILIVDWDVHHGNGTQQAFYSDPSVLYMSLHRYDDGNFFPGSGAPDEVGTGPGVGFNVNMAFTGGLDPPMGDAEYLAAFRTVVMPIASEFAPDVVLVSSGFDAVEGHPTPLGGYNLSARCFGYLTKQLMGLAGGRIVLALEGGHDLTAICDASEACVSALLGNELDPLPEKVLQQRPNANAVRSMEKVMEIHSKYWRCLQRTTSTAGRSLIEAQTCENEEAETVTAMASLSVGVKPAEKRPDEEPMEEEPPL

[35] = Antitumor activity against mouse WEHI-3 cells implanted in mouse assessed as survival time at 25 mg/kg, ip (reference value: 16 day); type: functional
[36] = Cytotoxicity against HEK293T cells; type: toxicity, cell-based, HEK-293T; conditions: human
Histone deacetylase 2 [37] = target: T2, Histone deacetylase 2; experiment: Inhibition of HDAC2 (unknown origin) using Boc-Lys-(Ac)-AMC as substrate incubated for 60 mins by fluorescence based analysis
[38] = Antiproliferative activity against human BEAS-2B cells assessed as reduction in cell viability incubated for 48 hrs by MTT assay; type: toxicity, cell-based
[39] = Antiproliferative activity against human MCF-10A cells assessed as reduction in cell viability incubated for 48 hrs by MTT assay; type: toxicity, cell-based
MDA-MB-231 = experiment: Antitumor activity against human MDA-MB-231 cells in nude mouse assessed as tumor growth inhibition at 20 mg/kg, ip administered once daily for 30 days relative to control; type: functional; conditions: MDA-MB-231, 720 h, time 30 day, read-out: TGI
[40] = Antiproliferative activity against human MCF-10F cells assessed as reduction in cell viability incubated for 48 hrs by MTT assay; type: toxicity, cell-based

## CCCC(CCC)C(=O)N[C@@H](Cc1ccccc1)C(=O)NO
HepG2 [1]
  IC50: 9620 nM
Ehrlich [2]
  Activity: ~36%
Ehrlich [3]
  ILS at 0.5 mg/kg: 131%
Histone deacetylase 1 [4]
  IC50: 2.86 nM
MCF7 [5]
  IC50: 9620 nM
HCT-116 [6]
  IC50: 9620 nM
HeLa
  IC50: 9620 nM

## COc1cc(/C=C/C(=O)c2ccc(OCCCCCC(=O)NO)cc2)cc(OC)c1OC
HCT-116 [7]
  IC50: 536 nM
HepG2 [8]
  IC50: 536 nM
MCF7 [9]
  IC50: 536 nM
A549 [10]
  IC50: 536 nM
Histone deacetylase 1 [11]
  IC50: 60 nM
Histone deacetylase 2 [12]
  IC50: 60 nM

## CC1=C(C)C2C(c3ccc(Cl)cc3)=N[C@@H](CC(=O)Nc3ccc(C(=O)NO)cc3)c3nnc(C)n3C2S1 (stereo partly specified)
CAPAN-1 [13]
  inhibition in vivo at 100 mg/kg: 87.7%
CAPAN-1 [14]
  inhibition in vivo at 50 mg/kg: 69%
CAPAN-1 [15]
  IC50: 150 nM
Histone deacetylase 1 [16]
  IC50: 21 nM
[17]
  IC50: 11 nM
CAPAN-1 [18]
  Ratio IC50: 36

## Cc1nc(C)c(C(=O)Nc2cccc(C(=O)NO)c2)nc1C
[19]
  IC50: 169 nM
HT-29
  IC50: 4990 nM
SH-SY5Y
  IC50: 7630 nM

## Cc1sc2c(c1C)C(c1ccc(Cl)cc1)=N[C@@H](CC(=O)OC(C)(C)C)c1nnc(C)n1-2
CAPAN-1 [14]
  inhibition in vivo at 50 mg/kg: 41%
CAPAN-1 [20]
  inhibition in vivo at 50 mg/kg: 57%

## COc1cc(/C=C/C(=O)CC(=O)/C=C/c2ccc(/C=C/C(=O)NO)cc2)ccc1O
U-87 MG [21]
  inhibition in vivo at 20 mg/kg: 52.1%
[22]
  half-life: 91.6 min
[23]
  half-life: 32.7 min
Histone deacetylase 1 [24]
  IC50: 0.38 nM
A549 [25]
  IC50: 5330 nM
[26]
  half-life: 40.7 min
[27]
  bioavailability: 40.2%
[28]
  IC50: 0.38 nM
Histone deacetylase 2 [29]
  IC50: 0.38 nM

## O=C(CCCCCNC(=O)c1cc(O)c2c(c1)C(=O)c1cccc(O)c1C2=O)NO
U-87 MG [30]
  IC50: 5500 nM
U-251
  IC50: 5500 nM

## O=C(O)CCCc1ccc(N(CCCl)CCCl)cc1 [CHLORAMBUCIL]
HL-60
  IC50: 21100 nM
U-937
  IC50: 37700 nM

## CNCCOc1ccc(-c2cc(=O)c3cc(OCCCCCC(=O)NO)cc(O)c3o2)cc1
[31]
  Activity: ~65%
Histone deacetylase 3
  IC50: 30 nM
[32]
  IC50: 30 nM
Histone deacetylase 1 [16]
  IC50: 30 nM
Histone deacetylase 2 [33]
  IC50: 30 nM
[34]
  IC50: 11600 nM
Histone deacetylase 4
  IC50: 30 nM
[35]
  Survival: 27 days
[36]
  IC50: 9490 nM

## O=C(CCCCCC(=O)N(Cc1ccc(Br)s1)c1ccc(OCCN2CCOCC2)cc1)NO
Histone deacetylase 2 [37]
  IC50: 3.22 nM
[38]
  IC50 at 48 h: > 100000 nM
[39]
  IC50 at 48 h: > 100000 nM
MDA-MB-231
  inhibition in vivo at 20 mg/kg: ~95%
[40]
  IC50 at 48 h: > 100000 nM

Source: ChEMBL document CHEMBL5614367, “Hydroxamic acid hybrids: Histone deacetylase inhibitors with anticancer therapeutic potency” (Eur J Med Chem, 2023)
